Measured values as given in patent US9446061B2, “Composition containing antibiotics and lysophosphatidylcholine for boosting immunity or treatment of bacterial infections” (priority 2011, dated 2016).
Marks after values point to notes of the source that are not given here.

Assays:
[1] = tested on: CPA-induced immunosuppressive mice; assay: Thymus and spleen organ weights in CPA-treated mice; format: in vivo, ICR mice; settings: LPC 1, DW286 0.5, Mix 0.75 mg/kg
Experimental: At sacrifice of CPA-treated model, the wet-weights of spleen and thymus were measured and regarded as absolute weight and then relative organ weight (% of body weight) was calculated as follow:
=[(Absolute organ weights/Body weight at sacrifice individual)×100]

[2] = tested on: CPA-CLP sepsis mouse model; assay: Combination effects of LPC and antibiotics (colistin, tobramycin, fusidin) in CPA-CLP sepsis mouse model (SEP013); single i.v. 6 hrs after CLP; format: in vivo, ICR mice; settings: mpk: LPC 5, DW286aa 5, Colistin 5, Tobra 4, Fusidin 80, LPC + Colistin 5 + 5, LPC + Tobra 5 + 4, LPC + Fusidin 5 + 80
Excerpt: (§1) CPA is well known as an immunosuppressive agent. […] Then, the abdomen was closed following the general procedure.
(§2) Then, body weight and mortality changes were observed.

[3] = Body weight of CPA-treated mice (Example 9); s.c. 4 times 12-hr intervals from 24 hrs after last CPA-dosing; settings: LPC 1, DW286 0.5, Mix 0.75 mg/kg
Experimental: In the INTACT control group, an equal volume of physiological saline was dosed instead of CPA by the same method.
(§3) In Intact control animals, equal volume of saline was only dosed instead of CPA with same methods.
In CPA-CLP model, body weight and mortalities were measured once a day for 5 days with automatic electronic balances (Sartorius Co., Ltd., USA), once a day for 2 days in CPA-treated model. All animals were overnight fasted at CPA dosing, CLP or initial dosing to reduce differences from feeding. In addition, body weight gains were calculated as follows:
CPA-Treat Model: Body weight at sacrifice—at initial dosing (2 days)
To find suitable dosing regime of LPC and DW286AA combination during the development of new therapeutic agents against sepsis, evaluation was conducted by using CPA-CLP— and CPA-induced immunosuppressive mice. […] Then, mortalities, changes in thymus and spleen weights, changes in white blood cell (WBC) number, and changes in thymic and splenic CD3+, CD4+, CD8+, and TNF-α+ cell numbers, were evaluated together with changes in bone marrow polychromatic erythrocytes contain micronuclei (MNPCE) number.
(§4) Appropriate doses of candidate materials were dissolved in 5% human serum albumin, and subcutaneously dosed at 10 ml/kg (of body weight), 4 times 12-hr intervals from 6 hrs after CLP or 24 hrs after last CPA-dosing, respectively. In the INTACT, CPA, or CPA-CLP control groups, an equal volume of 5% human serum albumin was dosed by the same procedure.

[4] = tested on: bone marrow polychromatic erythrocytes; assay: Bone marrow MNPCE and PCE/(PCE+NCE) in CPA-treated mice; settings: LPC 1, DW286 0.5, Mix 0.75 mg/kg
Experimental: as §3
In brief, bone marrow cells were collected from aforementioned femur in 3 ml of inactivated fetal bovine serum (GIBCO BRL, USA), centrifuged, and smeared on slide. Preparations were dried, and fixed by submerging in absolute methanol (for 10˜20 min). Fixed slides were stained as follow:
Slides were randomly coded and examined under×1000 magnification by two different experts. Small round or oval shaped bodies, size of which ranging about ⅕ to 1/20 of diameter of PCE, were counted as micronuclei. Attention was given to discriminate micronuclei from artifacts. Results were expressed as the number of MNPCEs in 1000 PCEs. Mean number of MNPCE±S.D. was calculated for each treatment group.
as §4

[5] = tested on: CPA-CLP sepsis mouse model; assay: Effects of LPC, LPC isomers, Xigris and DW286aa on mortalities/survivabilities in CPA-CLP sepsis mouse model (SEP009); single i.v. 6 hrs after CLP; format: in vivo; settings: LPC, LPC18:0, LPC18:1, LPA 5 mpk, Xigris 0.4 mpk, DW286aa 10 mpk
Experimental: as §1, §2
In the Sham and CLP control groups, 10 ml/kg of only sterile physiological saline was single intravenously dosed.

[6] = tested on: CPA-induced immunosuppressive mice; assay: Histopathology/histomorphometry of thymus and spleen in CPA-treated mice; format: in vivo, ICR mice
Experimental: After measuring of organ weight, thymus and spleen was sampled. Sampled organs were fixed in 10% neutral buffered formalin. After paraffin embedding, 3-4 μm sections were prepared. Representative sections were stained with Hematoxylin and Eosin (H&E) for light microscopical examination. After that the histological profiles of individual organs were observed.
The numbers of white pulps in spleen were calculated as N/histological sections (×50) using automated image analysis (analySIS Image Processing; SIS, Germany). In addition, the numbers of atrophic changes on thymic cortex/total observed number of thymus were also calculated.

[7] = LPC 1, DW286 0.5, Mix 0.75 mg/kg

Lysophosphatidylcholine [LPC]
Spleen weight, Relative ([1]; % of body weight at sacrifice): 0.178 ± 0.018*^,# % | Thymus weight, Relative ([1]; % of body weight at sacrifice): 0.099 ± 0.017 % | absolute splenic weights, change compared to CPA control [1]: 35.62% | absolute thymic weights, change compared to CPA control [1]: 13.31% | relative splenic weights, change compared to CPA control [1]: 40.69% | relative thymic weights, change compared to CPA control [1]: 17.56% | Spleen weight, Absolute ([1]; at sacrifice): 0.066 ± 0.007*^,# g | Thymus weight, Absolute ([1]; at sacrifice): 0.037 ± 0.007 g | Mortalities ([2]; 1st CPA treat): 0 | Survivalities ([2]; 1st CPA treat): 100% | Mortalities ([2]; 2nd CPA treat): 0 | Survivalities ([2]; 2nd CPA treat): 100% | Mortalities ([2]; At CLP (day 0)): 0 | Survivalities ([2]; At CLP (day 0)): 100% | Mortalities ([2]; Day 1): 2 | Survivalities ([2]; Day 1): 80% | Mortalities ([2]; Day 2): 5 | Survivalities ([2]; Day 2): 30% | Mortalities ([2]; Day 3): 2 | Survivalities ([2]; Day 3): 10% | Mortalities ([2]; Total): 9 | Survivalities ([2]; Total): 10% | Body weight ([3]; 1 day after second CPA-dosing): 36.54 ± 1.72 g | Body weight ([3]; 2 days after second CPA-dosing): 37.04 ± 1.47 g | Body weight ([3]; At Dosing (overnight fasted)): 32.08 ± 1.47 g | Body weight ([3]; At First CPA dosing (overnight fasted)): 36.58 ± 1.36 g | Body weight gains during 2 days after dosing [3]: 4.97 ± 1.67 g | body weight (gains) change compared to the CPA control group [3]: −12.35% | MNPCE numbers, change compared to CPA control [4]: −14.34% | PCE/(PCE+NCE), change compared to CPA control [4]: −12.98% | NCE ([4]; among 500 erythrocytes): 377.11 ± 22.32 | PCE ([4]; among 500 erythrocytes): 122.89 ± 22.32 | PCE/(NCE + PCE) ([4]; among 500 erythrocytes): 0.25 ± 0.04 | % MNPCE ([4]; among 1000 PCEs): 2.46 ± 0.75 % | Mortalities ([5]; 1st CPA treat): 0 | survivabilities ([5]; 1st CPA treat): 100% | Mortalities ([5]; 2nd CPA treat): 0 | survivabilities ([5]; 2nd CPA treat): 100% | Mortalities ([5]; At CLP (day 0)): 0 | survivabilities ([5]; At CLP (day 0)): 100% | Mortalities ([5]; Day 1): 1 | survivabilities ([5]; Day 1): 90% | Mortalities ([5]; Day 2): 3 | survivabilities ([5]; Day 2): 60% | Mortalities ([5]; Day 3): 1 | survivabilities ([5]; Day 3): 50% | Mortalities ([5]; Day 4): 1 | survivabilities ([5]; Day 4): 40% | Mortalities ([5]; Day 5): 2 | survivabilities ([5]; Day 5): 20% | Mortalities ([5]; Day 6): 0 | survivabilities ([5]; Day 6): 20% | Mortalities ([5]; Day 7): 1 | survivabilities ([5]; Day 7): 10% | Mortalities ([5]; Day 8): 1 | survivabilities ([5]; Day 8): 0% | Mortalities ([5]; Day 9): 0 | survivabilities ([5]; Day 9): 0% | Mortalities ([5]; Day 10): 0 | survivabilities ([5]; Day 10): 0% | Mortalities ([5]; Total): 10 | survivabilities ([5]; Total): 0% | atrophic changes (decreases in lymphoid cells in the thymic cortex), FIG. 7 ([6]; CPA-treated model, in words): effectively inhibited | splenic atrophy and decrease in lymphoid cells, FIG. 8 ([6]; CPA-treated model, in words): effectively inhibited | Spleen: Number of white pulps [6, 7]: 12.56 ± 1.81*^,# N/histological sections | Thymus: Incidences of thymic cortex atrophy (atrophic changes/total observed number of thymus) [6, 7]: 8/9 (88.89%) | incidences of decrease of lymphoid cells in the thymic cortex [6, 7]: 88.89% | numbers of white pulps of spleen, change compared to CPA control [6, 7]: 101.79%
